Earlier results as cited in patent US10010080B2, “Process for the production of partially polymerized antimicrobial silanol quaternary ammonium compounds” (Indusco, Ltd., priority 2015, dated 2018).

Conditions: Dow Corning material safety data sheet

CO[Si](CCCCl)(OC)OC [CPTMS, chloropropyptrimethoxy silane]
time weighted average (TWA) for human exposure: 0.1 part per million
